Active and inactive are the calls of the source. No cut-off for these calls is given here.
Assays:
L5178Y [1] = experiment: Cytotoxicity against mouse L5178Y cells assessed as reduction in cell viability after 72 hrs by MTT assay; type: cell-based
L5178Y [2] = experiment: Cytotoxicity against mouse L5178Y cells transfected with human ABCB1 assessed as reduction in cell viability after 72 hrs by MTT assay; type: functional, cell-based
[3] = target: T1, ATP-dependent translocase ABCB1 (Homo sapiens, UniProt P08183); experiment: Modulation of human ABCB1 expressed in mouse L5178Y cells assessed as fluorescence activity ratio at 2 uM pretreated for 10 mins followed by rhodamine-123 addition measured after 20 mins by flow cytometry (reference value: 0.87); type: cell-based
[4] = target: T1, ATP-dependent translocase ABCB1; experiment: Modulation of human ABCB1 expressed in mouse L5178Y cells assessed as fluorescence activity ratio at 20 uM pretreated for 10 mins followed by rhodamine-123 addition measured after 20 mins by flow cytometry (reference value: 0.87); type: cell-based
[5] = target: T1, ATP-dependent translocase ABCB1; experiment: Inhibition of human ABCB1 expressed in mouse L5178Y cells assessed as potentiation of doxorubicin-induced cytotoxicity by measuring combination index at 15:1 compound to doxorubicin ratio after 48 hrs by MTT assay; type: cell-based
[6] = Cytotoxicity against human EPG85-257RNOV cells assessed as reduction in cell viability after 5 days by SRB assay; type: functional, cell-based; conditions: 120 h
[7] = Cytotoxicity against human EPP85-181P cells assessed as reduction in cell viability after 5 days by SRB assay; type: cell-based; conditions: 120 h
[8] = Cytotoxicity against human EPP85-181RNOV cells assessed as reduction in cell viability after 5 days by SRB assay; type: functional, cell-based; conditions: 120 h
[9] = Cytotoxicity against human EPP85-181RDB cells assessed as reduction in cell viability after 5 days by SRB assay; type: functional, cell-based; conditions: 120 h
[10] = Induction of apoptosis in human EPP85-181RNOV cells at 30 uM after 72 hrs by annexin-V/propidium iodide staining based flow cytometric method relative to control; type: functional
[11] = Induction of apoptosis in human EPP85-181RDB cells at 30 uM after 72 hrs by annexin-V/propidium iodide staining based flow cytometric method relative to control; type: functional
[12] = target: T1, ATP-dependent translocase ABCB1; experiment: Inhibition of human ABCB1 expressed in mouse L5178Y cells assessed as potentiation of doxorubicin-induced cytotoxicity by measuring combination index at 18:1 compound to doxorubicin ratio after 48 hrs by MTT assay; type: cell-based
[13] = Cytotoxicity against human EPG85-257P cells assessed as reduction in cell viability after 5 days by SRB assay; type: cell-based; conditions: 120 h
[14] = Cytotoxicity against human EPG85-257RDB cells assessed as reduction in cell viability after 5 days by SRB assay; type: functional, cell-based; conditions: 120 h
[15] = Induction of apoptosis in human EPG85-257P cells at 30 uM after 72 hrs by annexin-V/propidium iodide staining based flow cytometric method relative to control; type: cell-based
Homo sapiens [16] = species: Homo sapiens; experiment: Induction of apoptosis in human EPG85-257RDB cells at 30 uM after 72 hrs by annexin-V/propidium iodide staining based flow cytometric method relative to control; type: functional
[17] = Induction of apoptosis in human EPG85-257P cells assessed as caspase-3 activation at 30 uM after 72 hrs by flow cytometric method relative to control; type: cell-based; conditions: 72 h, 30 µM
Homo sapiens [18] = species: Homo sapiens; experiment: Induction of apoptosis in human EPG85-257RDB cells assessed as caspase-3 activation at 30 uM after 72 hrs by flow cytometric method relative to control; type: functional
Homo sapiens [19] = species: Homo sapiens; experiment: Induction of apoptosis in human EPG85-257RNOV cells assessed as caspase-3 activation at 30 uM after 72 hrs by flow cytometric method relative to control; type: functional
Homo sapiens [20] = species: Homo sapiens; experiment: Induction of apoptosis in human EPG85-257RNOV cells at 30 uM after 72 hrs by annexin-V/propidium iodide staining based flow cytometric method relative to control; type: functional
[21] = Resistance ratio of IC50 for human EPG85-257P cells to IC50 for human EPG85-257RDB cells; type: functional
[22] = target: T1, ATP-dependent translocase ABCB1; experiment: Inhibition of human ABCB1 expressed in mouse L5178Y cells assessed as potentiation of doxorubicin-induced cytotoxicity by measuring combination index at 5:1 compound to doxorubicin ratio after 48 hrs by MTT assay; type: cell-based
[23] = target: T1, ATP-dependent translocase ABCB1; experiment: Inhibition of human ABCB1 expressed in mouse L5178Y cells assessed as potentiation of doxorubicin-induced cytotoxicity by measuring combination index at 50:1 compound to doxorubicin ratio after 48 hrs by MTT assay; type: cell-based
[24] = target: T1, ATP-dependent translocase ABCB1; experiment: Inhibition of human ABCB1 expressed in mouse L5178Y cells assessed as potentiation of doxorubicin-induced cytotoxicity by measuring combination index at 400:1 compound to doxorubicin ratio after 48 hrs by MTT assay; type: cell-based
[25] = target: T1, ATP-dependent translocase ABCB1; experiment: Inhibition of human ABCB1 expressed in mouse L5178Y cells assessed as potentiation of doxorubicin-induced cytotoxicity by measuring combination index at 200:1 compound to doxorubicin ratio after 48 hrs by MTT assay; type: cell-based
[26] = Resistance ratio of IC50 for human EPG85-257P cells to IC50 for human EPG85-257RNOV cells; type: functional
[27] = Resistance ratio of IC50 for human EPP85-181P cells to IC50 for human EPP85-181RDB cells; type: functional
[28] = target: T1, ATP-dependent translocase ABCB1; experiment: Activation of human ABCB1 ATPase activity expressed in Sf9 insect cell membranes assessed as increase in vanadate-sensitive basal ATPase activity at 0.78 to 100 uM measured after 10 mins by colorimetric method relative to control
[29] = target: T2, ABCB1 (P-glycoprotein) ATPase (Homo sapiens, UniProt P08183); experiment: Inhibition of human ABCB1 ATPase activity expressed in Sf9 insect cell membranes assessed as reduction in verapamil-stimulated vanadate-sensitive ATPase activity at 3.13 to […] uM measured after 10 mins by colorimetric method relative to control; conditions: Sf9 insect cell membranes expressing human ABCB1, probe verapamil (ATPase stimulator)
[30] = target: T2, ABCB1 (P-glycoprotein) ATPase; experiment: Inhibition of human ABCB1 ATPase activity expressed in Sf9 insect cell membranes assessed as reduction in verapamil-stimulated vanadate-sensitive ATPase activity at 25 to 100 uM measured after 10 mins by colorimetric method relative to control; conditions: Sf9 insect cell membranes expressing human ABCB1, probe verapamil (ATPase stimulator)
[31] = target: T1, ATP-dependent translocase ABCB1; experiment: Inhibition of human ABCB1 expressed in mouse L5178Y cells assessed as potentiation of doxorubicin-induced cytotoxicity by measuring combination index at 100:1 compound to doxorubicin ratio after 48 hrs by MTT assay; type: cell-based

T1 sequence (P08183 whole entry): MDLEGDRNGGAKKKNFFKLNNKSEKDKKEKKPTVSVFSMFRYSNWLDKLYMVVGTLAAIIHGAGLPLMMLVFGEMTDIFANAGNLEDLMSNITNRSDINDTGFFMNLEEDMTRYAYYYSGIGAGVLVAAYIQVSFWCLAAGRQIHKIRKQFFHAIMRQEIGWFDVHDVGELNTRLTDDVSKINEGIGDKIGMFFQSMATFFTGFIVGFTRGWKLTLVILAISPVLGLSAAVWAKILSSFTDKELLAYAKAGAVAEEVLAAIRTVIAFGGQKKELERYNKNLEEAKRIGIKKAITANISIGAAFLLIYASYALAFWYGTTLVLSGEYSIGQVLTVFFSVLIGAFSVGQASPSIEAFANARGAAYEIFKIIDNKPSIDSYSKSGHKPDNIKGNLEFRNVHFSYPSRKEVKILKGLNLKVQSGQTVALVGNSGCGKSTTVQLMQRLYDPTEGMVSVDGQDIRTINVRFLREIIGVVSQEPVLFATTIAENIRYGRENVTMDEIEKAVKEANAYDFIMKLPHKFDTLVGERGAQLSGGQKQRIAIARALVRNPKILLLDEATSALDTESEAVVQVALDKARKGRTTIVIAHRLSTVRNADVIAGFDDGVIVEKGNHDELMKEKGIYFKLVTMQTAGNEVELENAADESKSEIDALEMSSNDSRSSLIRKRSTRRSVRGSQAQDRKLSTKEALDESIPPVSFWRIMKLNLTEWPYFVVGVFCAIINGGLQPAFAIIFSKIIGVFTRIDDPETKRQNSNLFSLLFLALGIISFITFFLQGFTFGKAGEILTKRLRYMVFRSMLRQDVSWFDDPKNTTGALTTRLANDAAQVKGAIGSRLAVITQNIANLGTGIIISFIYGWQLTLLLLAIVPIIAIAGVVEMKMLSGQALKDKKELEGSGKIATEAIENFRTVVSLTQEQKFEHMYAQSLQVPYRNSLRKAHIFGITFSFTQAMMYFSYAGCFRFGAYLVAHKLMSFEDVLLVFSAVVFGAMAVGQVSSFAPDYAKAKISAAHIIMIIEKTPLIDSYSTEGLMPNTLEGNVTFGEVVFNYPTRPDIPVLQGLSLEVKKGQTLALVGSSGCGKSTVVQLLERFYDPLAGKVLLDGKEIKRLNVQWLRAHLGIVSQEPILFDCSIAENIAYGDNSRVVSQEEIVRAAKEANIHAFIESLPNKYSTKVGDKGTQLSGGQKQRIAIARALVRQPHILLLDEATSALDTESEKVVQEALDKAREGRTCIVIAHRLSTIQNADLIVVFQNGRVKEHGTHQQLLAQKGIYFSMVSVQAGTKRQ
T2 sequence (P08183 whole entry): as above

Ratio [3]	Ratio [4]	SMILES	IC50 (L5178Y [1])	IC50 (L5178Y [2])	IC50 [6]	Ratio IC50 [21]	other results
12.6	29	CC(=O)O[C@]12C[C@H](C)[C@H](OC(=O)C34CC5CC(CC(C5)C3)C4)[C@@H]1/C=C(/C)CC[C@H]1[C@@H](/C=C(\C)C2=O)C1(C)C	> 19 µM	> 19 µM	< 10 µM	–	CI [5]: 1.11; IC50 [7]: 8.61 µM; IC50 [8]: 6.63 µM; IC50 [9]: 5.86 µM; fold change (FC) [10]: 5; fold change (FC) [11]: 17
10.8	19.5	CC(=O)O[C@]12C[C@H](C)[C@H](OC(=O)Oc3ccccc3)[C@@H]1/C=C(/C)CC[C@H]1[C@@H](/C=C(\C)C2=O)C1(C)C	> 19 µM	> 19 µM	5.55 µM	0.4	CI [12]: 0.5; IC50 [13]: 6.24 µM; IC50 [14]: 2340 nM; Activity [15]: Toxic; Activity (Homo sapiens [16]): Active; Activity [17]: Toxic; Activity (Homo sapiens [18]): Active; Activity (Homo sapiens [19]): Active; Activity (Homo sapiens [20]): Active
3.1	18.7	CCOC(=O)O[C@H]1[C@@H](C)C[C@]2(OC(C)=O)C(=O)/C(C)=C/[C@@H]3[C@H](CC/C(C)=C\[C@@H]12)C3(C)C	> 19 µM	> 19 µM	< 10 µM	0.4	CI [22]: 1.22
12	32.8	COc1cccc(C(=O)O[C@H]2[C@@H](C)C[C@]3(O)C(=O)/C(C)=C/[C@@H]4[C@H](CC/C(C)=C\[C@@H]23)C4(C)C)c1	> 19 µM	> 19 µM	–	–	CI [23]: 0.38
11.9	31.9	CC(=O)O[C@]12C[C@H](C)[C@H](OC(=O)c3ccc4ccccc4c3)[C@@H]1/C=C(/C)CC[C@H]1[C@@H](/C=C(\C)C2=O)C1(C)C	> 19 µM	> 19 µM	–	–	CI [24]: 0.06
8.3	16.7	C/C1=C/[C@H]2[C@@H](OC(=O)c3ccc4ccccc4c3)[C@@H](C)C[C@]2(O)C(=O)/C(C)=C/[C@@H]2[C@H](CC1)C2(C)C	> 19 µM	> 19 µM	< 10 µM	0.3	CI [25]: 0.2; Ratio IC50 [26]: 0.4; Ratio IC50 [27]: 0.3
–	–	CC(=O)O[C@]12C[C@H](C)[C@H](O)[C@@H]1/C=C(\C)CC[C@H]1[C@@H](/C=C(\C)C2=O)C1(C)C [JOLKINOL D]	–	–	–	–	Activity [28]: 66 to 87%; inhibition at 10 min [29]: 14 to 40%; inhibition at 10 min [30]: 9 to 33%
11.6	37.2	CC(=O)O[C@]12C[C@H](C)[C@H](OC(=O)c3ccc(-c4ccccc4)cc3)[C@@H]1/C=C(/C)CC[C@H]1[C@@H](/C=C(\C)C2=O)C1(C)C	> 19 µM	> 19 µM	–	–	CI [31]: 0.32; Ratio IC50 [26]: 0.2

Source: ChEMBL document CHEMBL4190189, “Exploring Jolkinol D Derivatives To Overcome Multidrug Resistance in Cancer” (J Nat Prod, 2017)
